Values quoted from earlier work as cited in patent publication EP3957303A1, “PHARMACEUTICAL COMBINATION PREPARATION COMPRISING EZETIMIBE AND LOSARTAN” (Hanmi Pharm. Co., Ltd., priority 2019, dated 2020).

In the case of `O=C1[C@H](CC[C@H](O)c2ccc(F)cc2)[C@@H](c2ccc(O)cc2)N1c1ccc(F)cc1` [Ezetimibe, 1-(4-fluorophenyl)-3(R)-[3-(4-fluorophenyl)-3(S)-hydroxypropyl]-4(S)-(4-hydroxyphenyl)-2-azetidinone], the saturation solubility (under acidic to weakly basic conditions such as body fluids) is listed as “about 1 ppm” and the solubility in water (water) is listed as “practically insoluble in water”.
